{"source": "patent US12514906B2", "about": "“Use of C-type natriuretic peptide variants to treat skeletal dysplasia” (BIOMARIN PHARMACEUTICAL INC., priority 2015, dated 2026)", "origin": "cited, not measured here", "key": {"[1]": {"system": "NPR-B", "conditions": "CNP-53 compared with CNP-22"}, "[2]": {"system": "cGMP production", "conditions": "CNP-53 compared with CNP-22"}}, "note": "Where no end group is shown, it is not given here."}
{"substance": "CNP-53: active 53-amino acid peptide generated from pro-CNP by furin cleavage (DLRVDTKSRAAWARLLQEHPNARKYKGANKKGLSKGCFGLKLDRIGSMSGLGC; ends and bridges not checked; cysteine pairing not given here; UniProt P23582 74-126, looked up)", "values": [{"measurement": "binding to NPR-B", "setting": "[1]", "result": "bind similarly"}, {"measurement": "induction of cGMP production", "setting": "[2]", "result": "dose-dependent and similar fashion"}]}
{"substance": "CNP: mature 22-amino acid wild type C-type natriuretic peptide", "values": [{"measurement": "plasma half-life", "setting": "in vivo in humans", "result": 2.6, "unit": "min"}, {"measurement": "in vivo half-life", "setting": "normal human", "result": 2.6, "unit": "min"}, {"measurement": "binding to NPR-B", "setting": "[1]", "result": "bind similarly"}, {"measurement": "induction of cGMP production", "setting": "[2]", "result": "dose-dependent and similar fashion"}]}
